From BindingDB's records for doi:10.1021/jm061152t (Abbott Laboratories, 2007)
Several values for one entry are separate records, joined by “and”; a condition that tells them apart may be missing. Identical values can stand only once.

Experiment: The binding affinities (Ki) of compounds were determined using fluorescence polarization assays (FPA) that measure their ability to competitively displace a Bad-derived peptide from Bcl-xL. Compound efficacy (EC50) in a cellular context was evaluated by testing their ability to reverse the protection from cytokine w
Conditions: not given

EC50 | SMILES
600 nM | CN(C)CC[C@H](CSc1ccccc1)Nc1ccc(S(=O)(=O)NC(=O)c2ccc(N3CCC(=Cc4ccc(F)cc4)CC3)cc2)cc1[N+](=O)[O-] [N-[(4-{[(2R)-4-(dimethylamino)-1-(phenylsulfanyl)butan-2-yl]amino}-3-nitrobenzene)sulfonyl]-4-{4-[(4-fluorophenyl)methylidene]piperidin-1-yl}benzamide]
660 nM and 340 nM | CN(C)CC[C@H](CSc1ccccc1)Nc1ccc(S(=O)(=O)NC(=O)c2ccc(N3CCN(Cc4ccccc4NC4CCCCC4)CC3)cc2)cc1[N+](=O)[O-] [4-(4-{[2-(cyclohexylamino)phenyl]methyl}piperazin-1-yl)-N-[(4-{[(2R)-4-(dimethylamino)-1-(phenylsulfanyl)butan-2-yl]amino}-3-nitrobenzene)sulfonyl]benzamide]
550 nM and 1380 nM | CN(C)CC[C@H](CSc1ccccc1)Nc1ccc(S(=O)(=O)NC(=O)c2ccc(N3CCC(=Cc4ccccn4)CC3)cc2)cc1[N+](=O)[O-] [N-[(4-{[(2R)-4-(dimethylamino)-1-(phenylsulfanyl)butan-2-yl]amino}-3-nitrobenzene)sulfonyl]-4-[4-(pyridin-2-ylmethylidene)piperidin-1-yl]benzamide]
> 20000 nM | Cc1ccc(S(=O)(=O)N2CCN(c3ccc(C(=O)NS(=O)(=O)c4ccc(N[C@H](CCN(C)C)CSc5ccccc5)c([N+](=O)[O-])c4)cc3)CC2)cc1 [N-[(4-{[(2R)-4-(dimethylamino)-1-(phenylsulfanyl)butan-2-yl]amino}-3-nitrobenzene)sulfonyl]-4-{4-[(4-methylbenzene)sulfonyl]piperazin-1-yl}benzamide]
5500 nM and 6800 nM | CN(C)CC[C@H](CSc1ccccc1)Nc1ccc(S(=O)(=O)NC(=O)c2ccc(N3CCN(Cc4ccccc4S(C)(=O)=O)CC3)cc2)cc1[N+](=O)[O-] [N-[(4-{[(2R)-4-(dimethylamino)-1-(phenylsulfanyl)butan-2-yl]amino}-3-nitrobenzene)sulfonyl]-4-{4-[(2-methanesulfonylphenyl)methyl]piperazin-1-yl}benzamide]
1700 nM | CN(C)CC[C@H](CSc1ccccc1)Nc1ccc(S(=O)(=O)NC(=O)c2ccc(N3CCN(Cc4ccccc4)CC3)cc2)cc1[N+](=O)[O-] [4-(4-benzylpiperazin-1-yl)-N-[(4-{[(2R)-4-(dimethylamino)-1-(phenylsulfanyl)butan-2-yl]amino}-3-nitrobenzene)sulfonyl]benzamide]
56 nM and 27 nM | CN(C)CC[C@H](CSc1ccccc1)Nc1ccc(S(=O)(=O)NC(=O)c2ccc(N3CCN(Cc4ccccc4-c4ccccc4Cl)CC3)cc2)cc1[N+](=O)[O-] [4-(4-{[2-(2-chlorophenyl)phenyl]methyl}piperazin-1-yl)-N-[(4-{[(2R)-4-(dimethylamino)-1-(phenylsulfanyl)butan-2-yl]amino}-3-nitrobenzene)sulfonyl]benzamide]
130 nM and 27 nM | CN(C)CC[C@H](CSc1ccccc1)Nc1ccc(S(=O)(=O)NC(=O)c2ccc(N3CCN(Cc4ccccc4-c4ccc(F)cc4)CC3)cc2)cc1[N+](=O)[O-] [N-[(4-{[(2R)-4-(dimethylamino)-1-(phenylsulfanyl)butan-2-yl]amino}-3-nitrobenzene)sulfonyl]-4-(4-{[2-(4-fluorophenyl)phenyl]methyl}piperazin-1-yl)benzamide]
30 nM and 25 nM | COc1ccc(-c2ccccc2CN2CCN(c3ccc(C(=O)NS(=O)(=O)c4ccc(N[C@H](CCN(C)C)CSc5ccccc5)c([N+](=O)[O-])c4)cc3)CC2)cc1 [N-[(4-{[(2R)-4-(dimethylamino)-1-(phenylsulfanyl)butan-2-yl]amino}-3-nitrobenzene)sulfonyl]-4-(4-{[2-(4-methoxyphenyl)phenyl]methyl}piperazin-1-yl)benzamide]
380 nM and 460 nM | COc1cccc(-c2ccccc2CN2CCN(c3ccc(C(=O)NS(=O)(=O)c4ccc(N[C@H](CCN(C)C)CSc5ccccc5)c([N+](=O)[O-])c4)cc3)CC2)c1 [N-[(4-{[(2R)-4-(dimethylamino)-1-(phenylsulfanyl)butan-2-yl]amino}-3-nitrobenzene)sulfonyl]-4-(4-{[2-(3-methoxyphenyl)phenyl]methyl}piperazin-1-yl)benzamide]
800 nM and 820 nM | CN(C)CC[C@H](CSc1ccccc1)Nc1ccc(S(=O)(=O)NC(=O)c2ccc(N3CCN(Cc4ccccc4-c4cccnc4)CC3)cc2)cc1[N+](=O)[O-] [N-[(4-{[(2R)-4-(dimethylamino)-1-(phenylsulfanyl)butan-2-yl]amino}-3-nitrobenzene)sulfonyl]-4-(4-{[2-(pyridin-3-yl)phenyl]methyl}piperazin-1-yl)benzamide]
22 nM and 68 nM | CN(C)CC[C@H](CSc1ccccc1)Nc1ccc(S(=O)(=O)NC(=O)c2ccc(N3CCN(Cc4ccccc4-c4ccc(-c5ccccc5)cc4)CC3)cc2)cc1[N+](=O)[O-] [N-[(4-{[(2R)-4-(dimethylamino)-1-(phenylsulfanyl)butan-2-yl]amino}-3-nitrobenzene)sulfonyl]-4-(4-{[2-(4-phenylphenyl)phenyl]methyl}piperazin-1-yl)benzamide]
1900 nM and 5300 nM | CN(C)CC[C@H](CSc1ccccc1)Nc1ccc(S(=O)(=O)NC(=O)c2ccc(N3CCC(=Cc4cccnc4)CC3)cc2)cc1[N+](=O)[O-] [N-[(4-{[(2R)-4-(dimethylamino)-1-(phenylsulfanyl)butan-2-yl]amino}-3-nitrobenzene)sulfonyl]-4-[4-(pyridin-3-ylmethylidene)piperidin-1-yl]benzamide]
340 nM and 120 nM | CN(C)CC[C@H](CSc1ccccc1)Nc1ccc(S(=O)(=O)NC(=O)c2ccc(N3CCN(Cc4ccccc4C4CCCCC4)CC3)cc2)cc1[N+](=O)[O-] [4-{4-[(2-cyclohexylphenyl)methyl]piperazin-1-yl}-N-[(4-{[(2R)-4-(dimethylamino)-1-(phenylsulfanyl)butan-2-yl]amino}-3-nitrobenzene)sulfonyl]benzamide]
2200 nM | CN(C)CC[C@H](CSc1ccccc1)Nc1ccc(S(=O)(=O)NC(=O)c2ccc(N3CCC(C)(C)CC3)cc2)cc1[N+](=O)[O-] [N-[(4-{[(2R)-4-(dimethylamino)-1-(phenylsulfanyl)butan-2-yl]amino}-3-nitrobenzene)sulfonyl]-4-(4,4-dimethylpiperidin-1-yl)benzamide]
40 nM and 13 nM | CN(C)CC[C@H](CSc1ccccc1)Nc1ccc(S(=O)(=O)NC(=O)c2ccc(N3CCN(Cc4ccccc4-c4ccc(C(F)(F)F)cc4)CC3)cc2)cc1[N+](=O)[O-] [N-[(4-{[(2R)-4-(dimethylamino)-1-(phenylsulfanyl)butan-2-yl]amino}-3-nitrobenzene)sulfonyl]-4-[4-({2-[4-(trifluoromethyl)phenyl]phenyl}methyl)piperazin-1-yl]benzamide]
410 nM and 940 nM | Cc1ccccc1CN1CCN(c2ccc(C(=O)NS(=O)(=O)c3ccc(N[C@H](CCN(C)C)CSc4ccccc4)c([N+](=O)[O-])c3)cc2)CC1 [N-[(4-{[(2R)-4-(dimethylamino)-1-(phenylsulfanyl)butan-2-yl]amino}-3-nitrobenzene)sulfonyl]-4-{4-[(2-methylphenyl)methyl]piperazin-1-yl}benzamide]
> 50000 nM | CN(C)CC[C@H](CSc1ccccc1)Nc1ccc(S(=O)(=O)NC(=O)c2ccc(N3CCN(C(=O)c4ccccc4)CC3)cc2)cc1[N+](=O)[O-] [4-(4-benzoylpiperazin-1-yl)-N-[(4-{[(2R)-4-(dimethylamino)-1-(phenylsulfanyl)butan-2-yl]amino}-3-nitrobenzene)sulfonyl]benzamide]
180 nM and 33 nM | CN(C)CC[C@H](CSc1ccccc1)Nc1ccc(S(=O)(=O)NC(=O)c2ccc(N3CCN(Cc4ccccc4-c4cccc(Cl)c4)CC3)cc2)cc1[N+](=O)[O-] [4-(4-{[2-(3-chlorophenyl)phenyl]methyl}piperazin-1-yl)-N-[(4-{[(2R)-4-(dimethylamino)-1-(phenylsulfanyl)butan-2-yl]amino}-3-nitrobenzene)sulfonyl]benzamide]
390 nM and 130 nM | CN(C)CC[C@H](CSc1ccccc1)Nc1ccc(S(=O)(=O)NC(=O)c2ccc(N3CCN(Cc4ccccc4C(F)(F)F)CC3)cc2)cc1[N+](=O)[O-] [N-[(4-{[(2R)-4-(dimethylamino)-1-(phenylsulfanyl)butan-2-yl]amino}-3-nitrobenzene)sulfonyl]-4-(4-{[2-(trifluoromethyl)phenyl]methyl}piperazin-1-yl)benzamide]
95 nM and 130 nM | CSc1ccccc1CN1CCN(c2ccc(C(=O)NS(=O)(=O)c3ccc(N[C@H](CCN(C)C)CSc4ccccc4)c([N+](=O)[O-])c3)cc2)CC1 [N-[(4-{[(2R)-4-(dimethylamino)-1-(phenylsulfanyl)butan-2-yl]amino}-3-nitrobenzene)sulfonyl]-4-(4-{[2-(methylsulfanyl)phenyl]methyl}piperazin-1-yl)benzamide]
160 nM and 180 nM | CN(C)CC[C@H](CSc1ccccc1)Nc1ccc(S(=O)(=O)NC(=O)c2ccc(N3CCC(=Cc4ccccc4-c4ccccc4)CC3)cc2)cc1[N+](=O)[O-] [N-[(4-{[(2R)-4-(dimethylamino)-1-(phenylsulfanyl)butan-2-yl]amino}-3-nitrobenzene)sulfonyl]-4-{4-[(2-phenylphenyl)methylidene]piperidin-1-yl}benzamide]
18 nM and 16 nM | CN(C)CC[C@H](CSc1ccccc1)Nc1ccc(S(=O)(=O)NC(=O)c2ccc(N3CCN(Cc4ccccc4-c4ccccc4)CC3)cc2)cc1[N+](=O)[O-] [N-[(4-{[(2R)-4-(dimethylamino)-1-(phenylsulfanyl)butan-2-yl]amino}-3-nitrobenzene)sulfonyl]-4-{4-[(2-phenylphenyl)methyl]piperazin-1-yl}benzamide]
390 nM and 950 nM | COc1ccccc1CN1CCN(c2ccc(C(=O)NS(=O)(=O)c3ccc(N[C@H](CCN(C)C)CSc4ccccc4)c([N+](=O)[O-])c3)cc2)CC1 [N-[(4-{[(2R)-4-(dimethylamino)-1-(phenylsulfanyl)butan-2-yl]amino}-3-nitrobenzene)sulfonyl]-4-{4-[(2-methoxyphenyl)methyl]piperazin-1-yl}benzamide]

Same assay, conditions: pH 7.4

EC50 | SMILES
380 nM | CN(C)CC[C@H](CSc1ccccc1)Nc1ccc(S(=O)(=O)NC(=O)c2ccc(N3CCC(=Cc4ccc(F)cc4)CC3)cc2)cc1[N+](=O)[O-] [N-[(4-{[(2R)-4-(dimethylamino)-1-(phenylsulfanyl)butan-2-yl]amino}-3-nitrobenzene)sulfonyl]-4-{4-[(4-fluorophenyl)methylidene]piperidin-1-yl}benzamide]
> 20000 nM | Cc1ccc(S(=O)(=O)N2CCN(c3ccc(C(=O)NS(=O)(=O)c4ccc(N[C@H](CCN(C)C)CSc5ccccc5)c([N+](=O)[O-])c4)cc3)CC2)cc1 [N-[(4-{[(2R)-4-(dimethylamino)-1-(phenylsulfanyl)butan-2-yl]amino}-3-nitrobenzene)sulfonyl]-4-{4-[(4-methylbenzene)sulfonyl]piperazin-1-yl}benzamide]
1100 nM | CN(C)CC[C@H](CSc1ccccc1)Nc1ccc(S(=O)(=O)NC(=O)c2ccc(N3CCN(Cc4ccccc4)CC3)cc2)cc1[N+](=O)[O-] [4-(4-benzylpiperazin-1-yl)-N-[(4-{[(2R)-4-(dimethylamino)-1-(phenylsulfanyl)butan-2-yl]amino}-3-nitrobenzene)sulfonyl]benzamide]
14600 nM | CN(C)CC[C@H](CSc1ccccc1)Nc1ccc(S(=O)(=O)NC(=O)c2ccc(N3CCN(C(=O)c4ccccc4)CC3)cc2)cc1[N+](=O)[O-] [4-(4-benzoylpiperazin-1-yl)-N-[(4-{[(2R)-4-(dimethylamino)-1-(phenylsulfanyl)butan-2-yl]amino}-3-nitrobenzene)sulfonyl]benzamide]
